This is an account of results in PubChem BioAssay (NCI).

Among the test systems are OVCAR-3 ovarian; UACC-62 melanoma; TK-10 renal; K-562 leukemia; MDA-MB-231 breast; T-47D breast; OVCAR-4 ovarian; PC-3 prostate; OVCAR-8 ovarian; NCI-H460 lung.
Assay in all cases: NCI tumour cell line growth inhibition, 48 h

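Protocol summary: plate cells (96-well), add compound at 5 concentrations, incubate 48 h, interpolate endpoints linearly. GI50 = concentration required for 50% inhibition of growth. TGI is the concentration that stops growth completely.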

With `Clc1cccc(Cc2cn3cc(-c4ccccc4)nc3s2)c1`, the GI50 in the assay with OVCAR-3 ovarian is 9.07 µM; in the assay on UACC-62 melanoma, 0.323 µM; in the assay on TK-10 renal, 22 µM; in the assay with K-562 leukemia, 0.591 µM; in the assay with MDA-MB-231 breast, 1.91 µM; in the assay with T-47D breast, 2.33 µM. Further, the GI50 was 4.42 µM with OVCAR-4 ovarian, 14.4 µM in the assay on PC-3 prostate, 20.5 µM in the assay on OVCAR-8 ovarian and 3.31 µM in the assay on NCI-H460 lung. The TGI in the assay on OVCAR-3 ovarian was above 100 µM; with UACC-62 melanoma, 1.97 µM; with TK-10 renal, above 100 µM; with K-562 leukemia it was above 100 µM; in the assay on MDA-MB-231 breast, 21.3 µM; in the assay with T-47D breast, above 100 µM. Further, the TGI in the assay with OVCAR-4 ovarian, with PC-3 prostate, in the assay on OVCAR-8 ovarian and with NCI-H460 lung was above 100 µM throughout.
As to `CNC(=S)N/N=C(/C)CCC/C(C)=N/NC(=S)NC`, the TGI in the assay with OVCAR-3 ovarian is above 93.2 µM; in the assay on UACC-62 melanoma, above 100 µM; with TK-10 renal, above 100 µM; with K-562 leukemia, above 100 µM; in the assay on MDA-MB-231 breast it was above 100 µM; with T-47D breast, above 100 µM. Moreover, the TGI with OVCAR-4 ovarian was 29.2 µM; in the assay on PC-3 prostate it was above 100 µM; in the assay on OVCAR-8 ovarian it was above 100 µM; with NCI-H460 lung, above 100 µM.
With `COc1ccc2cc(C(=O)/C=C/c3ccccc3OC)ccc2c1`, the GI50 is 0.821 µM with OVCAR-3 ovarian; 1.88 µM with UACC-62 melanoma; 2.89 µM in the assay with TK-10 renal; 0.669 µM in the assay on K-562 leukemia; 2.73 µM in the assay on MDA-MB-231 breast; 2.58 µM with T-47D breast. The GI50 with OVCAR-4 ovarian is 18.9 µM; in the assay on PC-3 prostate it was 2.62 µM; with OVCAR-8 ovarian it was 2.71 µM. The TGI is 3.77 µM with OVCAR-3 ovarian; 11.9 µM with UACC-62 melanoma; above 40.1 µM with TK-10 renal; 21.7 µM in the assay on MDA-MB-231 breast; above 89.1 µM in the assay on T-47D breast; above 100 µM with OVCAR-4 ovarian. Moreover, the TGI in the assay on PC-3 prostate was 23.1 µM; in the assay with OVCAR-8 ovarian it was 7.34 µM; in the assay with NCI-H460 lung, above 51.7 µM.
For `O=C(O)C#Cc1ccc([N+](=O)[O-])cc1`, the TGI in the assay with OVCAR-3 ovarian, with UACC-62 melanoma, in the assay with TK-10 renal, in the assay on K-562 leukemia, in the assay with MDA-MB-231 breast and in the assay with T-47D breast was above 100 µM in each case. Further, the TGI with OVCAR-4 ovarian, in the assay with PC-3 prostate, with OVCAR-8 ovarian and in the assay on NCI-H460 lung was above 100 µM throughout.
In the case of `O=C(Nc1cccc2ccccc12)c1cc2ccccc2cc1O`, the GI50 in the assay on OVCAR-3 ovarian is 2.16 µM; in the assay on UACC-62 melanoma it was 1.49 µM; with TK-10 renal it was 2.8 µM; with K-562 leukemia it was 1.95 µM; with MDA-MB-231 breast, 1.77 µM; in the assay on T-47D breast, 2.8 µM. In addition, the GI50 was 2.69 µM with OVCAR-4 ovarian, 2 µM in the assay on PC-3 prostate, 2.52 µM in the assay on OVCAR-8 ovarian and 2.06 µM in the assay on NCI-H460 lung. For the same compound, the TGI with OVCAR-3 ovarian came to 6.85 µM; in the assay with UACC-62 melanoma it was 10.7 µM; with TK-10 renal, 6.72 µM; in the assay on K-562 leukemia, 23.4 µM; in the assay with MDA-MB-231 breast it was 4.46 µM; with T-47D breast, 18.7 µM. Besides, the TGI in the assay on OVCAR-4 ovarian is 35.9 µM; in the assay on PC-3 prostate, 8.48 µM; in the assay on OVCAR-8 ovarian, 8.25 µM; in the assay with NCI-H460 lung, 5.87 µM.
For `Cn1cc(-c2nc(-c3cn(C)c4ncccc34)cs2)c2cc(F)ccc21`, the GI50 with OVCAR-3 ovarian is 0.379 µM; in the assay on UACC-62 melanoma, 1.33 µM; in the assay with TK-10 renal, 3.01 µM; in the assay on K-562 leukemia, 0.358 µM; in the assay with MDA-MB-231 breast, 3.01 µM; with T-47D breast it was 0.648 µM. The GI50 in the assay on OVCAR-4 ovarian was 0.746 µM; in the assay on PC-3 prostate, 2.13 µM; in the assay on OVCAR-8 ovarian, 3.26 µM; in the assay on NCI-H460 lung, 1.12 µM. For the same compound, the TGI in the assay on OVCAR-3 ovarian was 2.24 µM; in the assay on UACC-62 melanoma, above 100 µM; in the assay on TK-10 renal it was 38 µM; in the assay with K-562 leukemia, above 100 µM; with MDA-MB-231 breast, 22.2 µM; with T-47D breast, 23.2 µM. For the same compound, the TGI in the assay with OVCAR-4 ovarian was above 100 µM; with PC-3 prostate, 32 µM; with OVCAR-8 ovarian it was above 100 µM; in the assay with NCI-H460 lung, 18.9 µM.
As for `CCNCCNc1cc(C2CCCC2)c(C#N)c2nc3ccccc3n12`, the GI50 was 1.7 µM in the assay on OVCAR-3 ovarian; 1.92 µM with UACC-62 melanoma; 1.84 µM with TK-10 renal; 2.49 µM in the assay with K-562 leukemia; 2.37 µM with MDA-MB-231 breast; 2.58 µM in the assay on T-47D breast. The GI50 in the assay on OVCAR-4 ovarian was 3.22 µM; in the assay with PC-3 prostate it was 6.1 µM; in the assay with OVCAR-8 ovarian it was 3.52 µM; in the assay with NCI-H460 lung, 2.75 µM. For the same compound, the TGI is 3.18 µM in the assay on OVCAR-3 ovarian; 3.76 µM with UACC-62 melanoma; 5.14 µM in the assay with TK-10 renal; 5.81 µM in the assay with K-562 leukemia; 5.27 µM with MDA-MB-231 breast; 7.14 µM in the assay on T-47D breast. Also, the TGI was determined as 13 µM in the assay with OVCAR-4 ovarian, 19.3 µM in the assay on PC-3 prostate, 10.6 µM in the assay with OVCAR-8 ovarian and 7.19 µM with NCI-H460 lung.
`COc1cc2c3c(n(CCCN4CCOCC4)c(=O)c2cc1OC)-c1cc2c(cc1C3=O)OCO2`: the GI50 is 15.6 µM in the assay on OVCAR-3 ovarian; 0.193 µM in the assay on UACC-62 melanoma; 34.6 µM in the assay on TK-10 renal; 4.54 µM in the assay on K-562 leukemia; 3.92 µM in the assay on MDA-MB-231 breast; above 50.8 µM with T-47D breast. Besides, the GI50 in the assay on OVCAR-4 ovarian is 51 µM; with PC-3 prostate it was 18.7 µM; in the assay on OVCAR-8 ovarian, 3.62 µM; in the assay with NCI-H460 lung it was 0.277 µM. Also, the TGI in the assay with OVCAR-3 ovarian is above 50.7 µM; in the assay on UACC-62 melanoma it was 2.29 µM; with TK-10 renal, above 94.3 µM; in the assay with K-562 leukemia it was above 100 µM; in the assay on T-47D breast, above 100 µM; with OVCAR-4 ovarian, above 100 µM. Besides, the TGI with PC-3 prostate, with OVCAR-8 ovarian and in the assay on NCI-H460 lung was above 100 µM each time.
`Cc1cc(NC(=O)C(=O)Cc2nc3ccccc3s2)ccc1Cl`: the TGI with OVCAR-3 ovarian, in the assay on UACC-62 melanoma, in the assay with TK-10 renal, with K-562 leukemia, in the assay with MDA-MB-231 breast and in the assay on T-47D breast was above 100 µM in each case. Further, the TGI with OVCAR-4 ovarian, in the assay on PC-3 prostate, in the assay with OVCAR-8 ovarian and with NCI-H460 lung was above 100 µM in each case.
